“Also recorded” adds a separate entry of the source. Residues, ends and D or L forms follow the SMILES beside them. *: point of attachment. Cbz = O=C(OCc1ccccc1)*; CH2F = FC*
Columns and labels:
SGC-7901 and MKN-45 = conditions: cited from earlier work
human Th17 cells [1] = test: Cytokine secretion by stimulated Th17 cells into culture supernatants (ELISA / Luminex); assay type: cell-based; conditions: for IL-1α secretion by Th17 cells: Th17 cells stimulated with anti-CD3 and anti-CD28 mAbs for 5 days, ELISA of supernatants
Procedure: (§1) Human T cells were cultured in RPMI 1640 medium supplemented with 1% (v/v) GlutaMAX™ Supplement, 1% (v/v) MEM nonessential Amino Acids Solution (100×), 1% (v/v) sodium pyruvate (100 mM), 0.1% 2-Mercaptoethanol (50 mM) (all from Gibco™), 1% (v/v) Penicillin-Streptomycin (Sigma-Aldrich), penicillin (500 U/ml), streptomycin (500 μg/ml), and 10% (v/v) fetal calf serum (Sigma-Aldrich). In some experiments, T cell culture was performed in the presence of recombinant cytokines (IL-6, 50 ng/ml; IL-12, 10 ng/ml; IL-4, 10 ng/ml; TGF-b, 10 ng/ml; IL-1b, 20 ng/ml; all from R&D Systems) or neutralizing antibodies (anti-IL-1a, […], BD Biosciences). […] T cells were stimulated with plate-bound anti-CD3 (2 μg/ml, clone TR66) and anti-CD28 mAbs (2 μg/ml, clone CD28.2; both from BD Biosciences) for 48 h before transfer into uncoated wells for another 3 days for a total culture period of 5 days, unless indicated otherwise in the legends. T cell clones were generated in non-polarizing conditions as described previously following single-cell deposition with fluorescence-activated cell sorting or by limiting dilution cloning (Gross, O. et al. Inflammasome activators induce interleukin-1alpha secretion via distinct pathways with differential requirement for the protease function of caspase-1. Immunity 36, 388-400, doi: 10.1016/j.immuni.2012.01.018 (2012)). Human monocytes were isolated from PBMCs by positive selection with CD14-specific MicroBeads (Miltenyi Biotec). Cells were stimulated with or without 1 μg/mL ultrapure lipopolysaccharide (LPS)-EB (t1r1-3pelps, InvivoGen) for 24 h and nigericin (10 μg/mL, InvivoGen) or ATP (5 mM, Thermo Fisher Scientific) for the last 30 mins. In some experiments, CD14^+ magnetic activated cell sorting (MACS)-sorted monocytes were differentiated into macrophages for 7 days in the presence of GM-CSF (R&D Systems).
(§2) Intracellular cytokine and transcription factor staining was performed as described before (Noster, R. et al. IL-17 and GM-CSF expression are antagonistically regulated by human T helper cells. Sci Transl Med 6, 241ra280, doi: 10.1126/scitranslmed.3008706 (2014)). Cells were stained with the following antibodies: anti-IL-1a-PE (364-3B3-14), anti-IL-4-FITC (MP4-25D2 5), anti-IL-17A-Pacific Blue (BL168), anti-IFN-g-APC-Cy7 (4S.B3), anti-IL-10-PE-Cy7 (JES3-9D7), (all from Biolegend), anti-RORgt-APC (AFKJS-9, eBioscience), anti-Ki67-BV421 (Biolegend), and anti-IL-1R1-PE (FAB269P, R&D Systems). Then, they were analyzed with a BD LSRFortessa (BD Biosciences), a CytoFLEX Flow Cytometer (Beckman Coulter) or a MACSQuant analyzer (Miltenyi Biotec). Flow cytometry data were analyzed with FlowJo software (Tree Star) or with Cytobank (Cytobank Inc.). The concentrations of cytokines in cell culture supernatants were measured by ELISA (Duoset ELISA kits from R&D Systems, Human Caspase-1SimpleStep ELISA Kit (Abcam) or by Luminex (eBioscience) according to standard protocols as indicated in the corresponding figure legends. Counting beads (CountBright™ Absolute Counting Beads, Thermo Fisher Scientific) were used to normalize for cell numbers if analysis of cumulative supernatants obtained from 5-day cell cultures was performed.

human Th17 cells [2] = test: Intracellular cytokine staining and flow cytometry of Th17 cells; assay type: cell-based
Procedure: as §1, with “In some experiments, CD14^+ magnetic activated cell sorting (MACS)-sorted monocytes were differentiated into macrophages for 7 days in the presence of GM-CSF (R&D Systems).” left out
as §2, with “Cells were stained with the following antibodies: anti-IL-1a-PE (364-3B3-14), anti-IL-4-FITC (MP4-25D2 5), anti-IL-17A-Pacific Blue (BL168), anti-IFN-g-APC-Cy7 (4S.B3), anti-IL-10-PE-Cy7 (JES3-9D7), (all from Biolegend), anti-RORgt-APC (AFKJS-9, eBioscience), anti-Ki67-BV421 (Biolegend), and anti-IL-1R1-PE (FAB269P, R&D Systems).” left out

human Th17 cells [3] = test: Western blot / Jess Simple Western of Th17 cell lysates for caspase and GSDME cleavage; assay type: cell-based; conditions: for GSDME cleavage / caspase-3 cleavage: Th17 cells stimulated 5 days with anti-CD3 and anti-CD28 mAbs
Procedure: as §1
Cells were lysed in RIPA buffer (50 mM Tris, 150 mM NaCl, 1 mM EDTA, 0.1% NP-40, pH 7.5) containing protease inhibitor (Roche) and PhosphoSTOP Easypack (Roche). The protein concentrations of cell lysates were determined with a Pierce™ BCA Protein Assay Kit (Thermo Fisher Scientific™). Total protein ([…]) was boiled with 4× Laemmli sample buffer (Bio-Rad Laboratories) containing 355 mM 2-mercaptoethanol (Thermo Fisher Scientific) at 99° C. for 10 min. The supernatants and lysates were separated by SDS-polyacrylamide gel electrophoresis (PAGE) and transferred to a PVDF membrane (Bio-Rad Laboratories) by using a Mini-Protean system (Bio-Rad Laboratories) according to the manufacturer's protocol. The following primary antibodies were used for immunoblotting: mouse anti-human caspase-8 (Cell Signaling Technology), rabbit anti-human caspase-1 (Cell Signaling Technology), rabbit anti-human IL-1α (Abcam), mouse anti-human GAPDH (Merck millipore), mouse anti-human b-actin (Cell Signaling Technology), and rabbit anti-human gasdermin E (Abcam), rabbit anti-human caspase-3 (Cell Signaling Technology), mouse anti-human caspase-8 (Cell Signaling Technology), rabbit anti-human gasdermin D (Cell Signaling Technology), rabbit anti-human cleaved gasdermin D (Cell Signaling Technology), rabbit anti-NLRP3 (Cell Signaling Technology). HRP-conjugated anti-mouse and anti-rabbit IgG antibodies (Cell Signaling Technology) were used as secondary antibodies. Immunoreactive bands were detected by Pierce™ ECL Western Blotting Substrate or SuperSignal™ West Femto Maximum Sensitivity Substrate (both from Thermo Scientific™). Chemiluminescence signals were recorded with an Odyssey Imaging system (LI-COR Biosciences) and analyzed on Image Studio™ Lite (LI-COR Biosciences). Image contrast was enhanced in a linear fashion when necessary. Protein lysates were also prepared for automated Western blotting using a Jess System (ProteinSimple) according to the manufacturer's instructions. […]

human monocytes = test: IL-1a secretion by LPS/nigericin stimulated monocytes (ELISA); assay type: cell-based; conditions: LPS 24 h, nigericin 30 min
Procedure: as §1, with “Human monocytes were isolated from PBMCs by positive selection with CD14-specific MicroBeads (Miltenyi Biotec). Cells were stimulated with or without 1 μg/mL ultrapure lipopolysaccharide (LPS)-EB (t1r1-3pelps, InvivoGen) for 24 h and nigericin (10 μg/mL, InvivoGen) or ATP (5 mM, Thermo Fisher Scientific) for the last 30 mins. In some experiments, CD14^+ magnetic activated cell sorting (MACS)-sorted monocytes were differentiated into macrophages for 7 days in the presence of GM-CSF (R&D Systems).” left out

[4] = tested on: patients suffering from the rare autoinflammatory Schnitzler syndrome; test: Treatment of Schnitzler syndrome patients with IL-1β-neutralizing antibody; IL-1α secretion of ex vivo Th17 cell clones (Luminex) and clinical symptoms; assay type: in vivo, human; conditions: treatment for 6 months; Th17 cell clones restimulated with CD3 and CD28 mAbs for 5 days
Procedure: Peripheral blood mononuclear cells (PBMCs) were isolated by density gradient centrifugation using Ficoll-Paque Plus (GE Healthcare). CD4^+ T cells were isolated from fresh PBMC by positive selection with CD4-specific MicroBeads (Miltenyi Biotec) using an autoMACS Pro Separator. […]
as §2, with “Cells were stained with the following antibodies: anti-IL-1a-PE (364-3B3-14), anti-IL-4-FITC (MP4-25D2 5), anti-IL-17A-Pacific Blue (BL168), anti-IFN-g-APC-Cy7 (4S.B3), anti-IL-10-PE-Cy7 (JES3-9D7), (all from Biolegend), anti-RORgt-APC (AFKJS-9, eBioscience), anti-Ki67-BV421 (Biolegend), and anti-IL-1R1-PE (FAB269P, R&D Systems).” left out, “performed. […]” for “performed.”

[5] = tested on: patients suffering from the rare autoinflammatory Schnitzler syndrome; conditions: treatment for 6 months; cited from earlier work
[6] = Th17 cells, restimulation with PMA and ionomycin in presence or absence of BFA
[7] = anti-CD3 and anti-CD28 mAb 5 days, PMA and ionomycin restimulation

In the case of O=c1[nH]cc(F)c(=O)[nH]1 [5-FU], the cell viability (SGC-7901 and MKN-45; SGC-7901 and MKN-45 treated with 5-FU) is listed as “significantly decreased”, the “percentage of PI and APC Annexin-V double positive cells” value (SGC-7901 and MKN-45; after 5-FU treatment compared to control group) is listed as “elevated” and the “release of LDH” value (SGC-7901 and MKN-45) is listed as “elevated”.

With CC(=O)N[C@@H](Cc1ccc(O)cc1)C(=O)N[C@H](C(=O)N[C@@H](C)C(=O)N[C@@H](CC(=O)O)C(=O)CCl)C(C)C [Ac-YVAD-CMK] the “IL-1α secretion by Th17 cells” value (human Th17 cells [1]) was “did not inhibit; also recorded: significantly elevated”.

For C[C@H]1CCC/C=C/[C@@H]2C[C@H](O)C[C@H]2[C@H](O)/C=C/C(=O)O1 [BFA, brefeldin A], the “secretion of IL17A into the extracellular space” value (human Th17 cells [1]; [6]) was “reduced” and the “intracellular IL-1α expression” value (human Th17 cells [2]; [6]) was “not influenced”.

With CC(C)(O)c1coc(S(=O)(=O)NC(=O)Nc2c3c(cc4c2CCC4)CCC3)c1 [MCC950] the GSDME cleavage (human Th17 cells [3]) was “significant reduction”, the caspase-3 cleavage (human Th17 cells [3]) was “significant reduction” and the caspase-8 cleavage (human Th17 cells [3]; Th17 cells stimulated, day 5) was “less pronounced”. For the same molecule, the “IL-1α secretion by Th17 cells” value (human Th17 cells [1]) was “significantly reduced; also recorded: significantly inhibited”.

For COC(=O)CC[C@H](NC(=O)[C@H](CC(=O)OC)NC(=O)OCc1ccccc1)C(=O)N[C@H](C(=O)N[C@@H](CC(=O)OC)C(=O)CF)C(C)C [Z-DEVD-FMK], the GSDME cleavage (human Th17 cells [3]) was “reduced” and the “IL-1α secretion by Th17 cells” value (human Th17 cells [1]) was “abrogating”.

For CC[C@H](C)[C@H](NC(=O)OCc1ccccc1)C(=O)N[C@@H](CCC(=O)OC)C(=O)N[C@H](C(=O)N[C@@H](CC(=O)OC)C(=O)CF)[C@@H](C)O [Z-IETD-FMK] (Cbz-IE(OMe)TD(OMe)-CH2F), the GSDME cleavage (human Th17 cells [3]) was “reduced”, the caspase-3 cleavage (human Th17 cells [3]) was “abrogation” and the “IL-1α secretion by Th17 cells” value (human Th17 cells [1]) was “abrogating”.

With CSCC[C@@H](C=O)NC(=O)[C@H](CC(C)C)NC(=O)[C@H](CC(C)C)NC(C)=O [calpain inhibitor, N-Acetyl-L-leucyl-L-leucyl-L-methioninal] (Ac-Leu-Leu-Met-aldehyde) the “LPS/nigericin-induced IL-1a secretion by monocytes” value (human monocytes) was “not dependent on calpain” and the “IL-1α secretion by Th17 cells” value (human Th17 cells [1]) was “dose-dependent reduction”.

In the case of C/C=C(/C)C(=O)O[C@H]1C(C)=C2[C@H]([C@@H]1OC(=O)CCCCCCC)[C@@](C)(OC(C)=O)C[C@H](OC(=O)CCC)[C@@]1(O)[C@H]2OC(=O)[C@@]1(C)O [thapsigargin], the “IL-1α secretion by Th17 cells” value (human Th17 cells [1]) is reported as “increased”.

In the case of “canakinumab: IL-1β-neutralizing antibody”, the “IL-1α production by Th17 cells of Schnitzler syndrome patients” value [4] is given as “significant reduction” and the clinical symptoms [5] is given as “complete resolution”.

In the case of “gevokizumab: IL-1β-neutralizing antibody”, the “IL-1α production by Th17 cells of Schnitzler syndrome patients” value [4] is listed as “significant reduction” and the clinical symptoms [5] is listed as “complete resolution”.

B1: recombinant IL-1α: recombinant IL-1α applied exogenously to Th17 cells (protein, UniProt P01583 113-271, looked up)
Interleukin-1 alpha: SAPFSFLSNVKYNFMRIIKYEFILNDALNQSIIRANDQYLTAAALHNLDEAVKFDMGAYKSSKDDAKITVILRISKTQLYVTAQDEDQPVLLKEMPEIPKTITGSETNLLFFWETHGTKNYFTSVAHPNLFIATKQDYWVCLAGGPPSITDFQILENQA
In the case of B1, the “IFN-γ expression by Th17 cells” value (human Th17 cells [2]; [7]) is reported as “upregulation”, the “IL-10 expression by Th17 cells” value (human Th17 cells [2]; [7]) is reported as “reduced” and the “IL-17A expression by Th17 cells” value (human Th17 cells [2]; [7]) is reported as “upregulation”.
